# pIC50: −log10 of the molar value. Entries after “also recorded” stand apart in the source; their conditions may differ.
# Tests used:
# [1] = tested on: thymocytes; experiment: IL-2 (ConA co-stimulated) induced proliferation of thymocytes; format: cell-based, mice; settings: Mus musculus, Thymocyte, 96 h; Table II; ConA 0.25 ug/ml / IL2 20 ng/ml, 4 days
# Protocol: This example illustrates the effects of inventive compounds nos. 1105, 1114, 1413, 1439, 1594, 2518, 2548R, 2548S, 2562 and 3503 as effective inhibitors of IL-2 induced proliferation of thymocytes. Single cell suspensions of thymus gland cells obtained from 4-6 week old mice were prepared. Two-hundred thousand cells were plated into individual wells of flat-bottom 96-well plates in RPMI-1640-10% FCS medium. The invention compounds were then added to the wells at varying concentrations and the cells incubated for 1-2 hours at 37° C.
# Following this pre-incubation a mixture of Concanavalin A (ConA) and Interleukin-2 (IL2) was added to the experimental wells at a final concentration of (0.25 ug/ml ConA)/(20 ng/ml IL2). Appropriate positive and negative controls were set up on each plate. Each variable was set up in quadruplicate.
# The plates were incubated for 4 days at 37° C. in a humidified CO2 incubator. On day 4 the wells were pulsed with 1 μCi of tritiated thymidine(3H-TdR) and the plates incubated for an additional 4 hours. The plates were then harvested and the incorporation of 3H-TdR was determined in a liquid scintillation counter. From the CPM obtained from each experimental well an IC-50 for each inventive compound tested was determined. Therefore, a lower reported IC-50 value is indicative of greater inhibition of IL-2-induced proliferation of thymocytes. Table II illustrates IC-50 values (in μM) for inventive compounds inhibiting proliferation at very low concentrations of compound.
# [2] = tested on: normal human bone marrow stromal cells (MSC); experiment: human bone marrow stromal cell (MSC) proliferation in response to PDGF BB and IL-1α; format: cell-based; settings: Table III, PDGF BB 50 ng/ml and IL-1α 10 ng/ml
# Protocol: This example illustrates the effects of inventive compounds nos. 1114, 1413, 1560, 1565, 1594, 2518, 2548R, 2548S and 3503 as effective inhibitors of normal human bone marrow stromal cells (MSC) proliferation in response to Platelet Derived Growth Factor BB (PDGF B) and IL-1α (50 and 10 ng/ml, respectively).
# MSC were obtained and malintained in exponential growth, released from a growth plate with trypsin and plated into 96 well tissue culture plates in the presence of Fibroblast Growth Factor (FGFβ) for 48 hours. Growth media were removed and the cells were washed once with serum free media. The cells were then incubated 20-24 hours in serum free media.
# After incubation, inventive compounds were added to the cells at the appropriate concentration and then the cells again incubated for 1 hour. PDGF B and IL-1α were added to the cells along with 3H-thymidine and the cells again incubated for an additional 24 hours.
# After 24 hours of incubation, the cells were then harvested to assess incorporation of ^3 H-thymidine into DNA (proliferation). From each harvested cell culture, an IC-50 for each inventive compound tested was determined. Therefore, a lower reported IC-50 value is indicatilve of greater activity of the invention compounds in inhibiting MSC proliferation. Table III illustrates IC-50 values (in μM) for invention compounds inhibiting MSC proliferation at very low concentrations of compound.
# [3] = tested on: hair follicles / skin of nu/nu (nude) mice; experiment: hair growth stimulation in nude mice, topical, skin biopsies; format: in vivo
# Source text: This example illustrates the effects of inventive compound no. 1541 as hair growth stimulant in nude mice. In a procedure similar to that used in a commercial model for predicting human hair-growing ability of minoxidil, nu/nu (nude) mice were painted twice daily for 16 days on the right flank with compound no. 1541 using sterile applicators. Researches handled the mice under a laminar flow hood with applicator, wearing face mask and sterile gloves.
# After 16 days, one mouse was sacrificed by cervical dislocation and skin biopsies taken from the treated areas of the shoulder/flank and the non-treated area of the dorsal pelvis (rump). Specimens were placed in 10% buffered formalin solution.
# Six weeks following treatment, a second mouse was euthanatized and biopsied the same as previous mouse after 16 days.
# [4] = tested on: thymocytes; experiment: murine thymocyte proliferation assay co-stimulated by ConA and IL-2 (FIGS. 7A-7E); format: cell-based, Balb/C mice; settings: Mus musculus
# Source text: This example illustrates dose response curves used to generate 50% inhibition concentrations (IC50) for inventive compounds nos. 1410, 1439, 1541, 1553, 1553S, 1560, 1565, 2548R, 2548S and 2562 in a murine thymocyte proliferation assay, co-stimulated by Concanavalin A (ConA) and interleukin-2 alpha (IL-2). ConA, used to activate the T-cell receptor (TCR), along with IL-2 co-stimulation, induces T-cell proliferation and differentiation. Thymuses, obtained from normal, female Balb/C mice, were dissociated and plated into 96-well plates at a density of 2×10^5 cells/well. ConA (0.25 mg/ml) and IL-2 (15 U/ml) were added to the wells. The cells were incubated for 4 days at 37° C. On day 4, the cells were pulsed with tritiated thymidine and incubated for an additional 4 hours. The amount of tritiated thymidine incorporated by the harvested cells was determined in a liquid scintillation counter. Doses of inventive compounds (shown in FIGS. 7A-7E) were added two hours prior to ConA and IL-2 activation. Background counts were less than 200 cpm. Results obtained, illustrate the ability of the inventive compounds to inhibit thymocyte proliferation and activation. In FIG. 7A, inventive compounds nos. […] FIG. 7B presents additional data for compound no. 1410 and 1553S in this assay. […] FIG. 7C reports assay results for inventive compounds nos. 1439, 1541, 1560 and 1565. […] FIGS. 7D and 7E illustrate assay results for inventive compounds nos. 1541, 1553, 1560 and 1565 (FIG. 7D) and 2562, […] (FIG. 7E). As is true of other inventive compounds tested, all these compounds represented in FIGS. 7D and 7E inhibit thymocyte proliferation. […] 1541, 1553, 1560, 1565, 2562, 2548R and 2548S, respectively.
# [5] = tested on: lymph node cells; experiment: ovalbumin-induced proliferation in murine lymph cells (FIG. 13); format: cell-based, Balb/C mice; settings: Mus musculus, OVA 200 μg/ml
# Source text: This example illustrates effects of the inventive compounds on ovalbumin-induced proliferation in murine lymph cells. Lymphnode cells contain a mixture of lymphoid cells: T-cells, B-cells and macrophages. Although proliferating cells in this assay are T-cells, the response obtained depends on type of antigen-presenting cell (e.g., macrophages) as well as elaboration of various immunoregulatory cytokines. Thus, this assay serves as a good model for T-cell mediated responses and as a valuable screening tool in identifying compounds useful in immunosuppressive therapeutic applications.
# Murine T-cells proliferate in vitro in response to a soluble protein antigen if first primed with a corresponding antigen in vivo. This in vivo priming usually involves emulsifying the antigen in complete Freunds adjuvant and injecting this preparation into an appropriate site on a mouse. In this assay the antigen employed was chicken ovalbumin(OVA). Following emulsification in Freund's complete adjuvant, 50 μg of OVA were injected into both hind footpads of adult Balb/C mice. Fourteen days later the draining lymph nodes(popliteal) were removed and a single cell suspension was prepared in RPMI-1640 (10%FCS) medium. Two hundred thousand lymph node cells are then plated into wells of flat-bottom 96-well plates. Inventive compouds nos. 1410, 1553 (racemic), 1553(S), 1560 and 1565 were added to appropriate wells at various concentrations. OVA, at a final concentration of 200 μg/ml, was added to appropriate wells. Positive and negative controls were established on each plate, all assay variables being set up in quadruplicate.
# The plates were incubated in a humidified, 5% CO2 incubator for 5 days. On the fifth day, 1 μCi of tritiated thymidine was added to each well and the plates were incubated for an additional 4 hours. The plates were harvested and the incorporation of 3H-TdR was determined in a liquid scintillation counter. The CPM data was then used to calculate experimental IC50 values for the compounds tested. Again, IC50 is defined as that concentration of compound resulting in 50% inhibition of 3H-TdR incorporation of the positive control.
SMILES,pIC50 [1],pIC50 [2],pIC50 ([4]; FIGS. 7D and 7E),further results
"Cn1cnc2c1c(=O)n(CCCCCCCCCCCCC1CO1)c(=O)n2C (centres unmarked) [Compound 3503, 1-(13,14-Oxidotetradecyl)-3,7-dimethylxanthine]",5.00,4.85,–,–
"O=C1Cc2ccccc2C(=O)N1CCCCCCCCCC1CO1 (centres unmarked) [Compound 1114, N-(10,11-Oxidoundecyl) homophthalimide]",5.00,5.29,–,–
"C=CCCCCn1c(=O)c2c(ncn2C)n(C)c1=O [Compound 1539, 1-(5-Hexenyl)-3,7-dimethylxanthine]",–,4.74,–,–
"Cn1cnc2c1c(=O)n(CCCCC1CO1)c(=O)n2C (centres unmarked) [Compound 1541, 1-(5,6-Oxidohexyl)-3,7-dimethylxanthine]",–,–,4.24,"skin histology findings (inflammatory cells) ([3]; after 16 days, also a few in untreated areas): mild accumulations of mixed inflammatory cells in the dermis; hair/follicle findings six weeks following treatment ([3]; six weeks following treatment): confirmed hair loss; also recorded: slightly straighter superficial portions of follicles with less curling of hair shafts; also recorded: the subcutis contained active anagen bulbs located deeply in the subcutis; skin histology findings (acanthosis) ([3]; six weeks following treatment): slightly more acanthosis (epidermal hyperplasta) in treated areas; hair follicles and hair shafts in treated areas ([3]; topical, twice daily, 16 days, biopsy at 16 days): follicles in the treated areas had hair shafts which sometimes exit to the surface; also recorded: more normal appearing hair follicles than the untreated sections; also recorded: numerous hair shafts were seen exiting follicles in the treated sections; pIC50 ([4]; FIG. 7C): 4.15"
Cn1cnc2c1c(=O)n(CCCCCCCCCC1CO1)c(=O)n2C (centres unmarked) [Compound 1594],5.07,4.85,–,–
"Cn1cnc2c1c(=O)n(CCCCCCCCCCCC1CO1)c(=O)n2C (centres unmarked) [Compound 2562, 1-(12,13-Oxidotridecyl)-3,7-dimethylxanthine]",5.51,–,4.70,–
"O=C1c2ccccc2C(=O)N1CCCCCCCC1CO1 (centres unmarked) [Compound 1105, N-(8,9-Oxidononyl) phthalimide]",5.07,–,–,–
"Cn1c(=O)n(CCCCCCCCCC2CO2)c(=O)c2[nH]cnc21 (centres unmarked) [Compound 1413, 1-(11,10-Oxidoundecyl)-3-methylxanthine]",5.11,5.43,–,–
"C[C@H](CCCn1c(=O)c2c(ncn2C)n(C)c1=O)CCC1OC1(C)C (stereo partly drawn) [Compound 2548S, 1-(4-(S)-Methyl-7,8-oxide-8-methylnonyl)-3,7-dimethylxanthine]",5.34,5.23,4.68,–
"C[C@@H](CCCn1c(=O)c2c(ncn2C)n(C)c1=O)CCC1OC1(C)C (stereo partly drawn) [Compound 2548R, 1-(4-(R)-Methyl-7,8-oxido-8-methylnonyl)-3,7-dimethylxanthine]",5.12,5.06,4.80,–
"Cn1cnc2c1c(=O)n(CCCCCCC1CO1)c(=O)n2C (racemic) [Compound 1553, 1-(7,8-Oxidooctyl)-3,7-dimethylxanthine]",–,–,4.54,pIC50 [5]: 4.35
Cn1c(=O)n(CCCCC2CO2)c(=O)c2c1ncn2COC(=O)C(C)(C)C (centres unmarked) [Compound 1410],–,–,–,pIC50 ([4]; FIG. 7A): 4.17; pIC50 ([4]; FIG. 7B): 4.21; pIC50 [5]: 4.26
